The source of these data is ChEMBL document CHEMBL4813957, “Antitubercular properties of thiazolidin-4-ones - A review” (Eur J Med Chem, 2021).

As a reminder, the IC90 is the concentration needed for an effect of 90%.

SMILES strings stand for the structures. ≈ marks a conversion by molar mass, not a printed value.

For this experiment, the system named is Mycobacterium tuberculosis variant bovis. As to the kind of experiment: Antimycobacterial activity against Mycobacterium bovis BCG ATCC 35743 measured on 8th to 12th day by nitrate reductase assay. The conditions noted are these: BCG str. ATCC 35743, time 8-12 day. The format is functional.
Consider `Cc1cc(NS(=O)(=O)c2ccc(N3C(=O)CSC3c3ccc(F)cc3)cc2)no1` (stereo not given), for which the IC90 was 0.058 µg/mL (≈ 0.134 µM). `Cc1cc(NS(=O)(=O)c2ccc(N3C(=O)CSC3c3c(F)cccc3F)cc2)no1` (stereo not given): the IC90 turned out to be 0.058 µg/mL (≈ 0.128 µM). Take `Cc1cc(NS(=O)(=O)c2ccc(N3C(=O)CSC3c3ccc(C(F)(F)F)cc3)cc2)no1` (stereo not given): the concentration for an effect of 90% (IC90) is 0.058 µg/mL (≈ 0.12 µM). The result for `Cc1cc(NS(=O)(=O)c2ccc(N3C(=O)CSC3c3ccc(Cl)cc3)cc2)no1` (stereo not given) reads 0.058 µg/mL (≈ 0.129 µM); that for `Cc1cc(NS(=O)(=O)c2ccc(N3C(=O)CSC3c3c(Cl)cccc3Cl)cc2)no1` (stereo not given), 0.058 µg/mL (≈ 0.12 µM).
